US20250312469A1 (CANGET BIOTEKPHARMA, priority 2024, published 2025)
“And” between values parts separate entries of the source, which are not always exact repeats. Identical values can stand only once.

Tests used:
CYP2B6 mRNA = assay: CYP induction (mRNA) in fresh human hepatocytes
From the text: (§1) (2) CYP positive inducers (Table 58a) and Williams' Medium E (WME) were purchased from Sigma-Aldrich (St. Louis, MO, USA). Dulbecco's phosphate-buffered saline (DPBS, pH 7.4) was purchased from Invitrogen (Carlsbad, CA, USA). Hepatocyte culture medium (serum-free) for CYP induction was purchased from XenoTech (catalog #K2300, Lenexa, KS, USA). The CellTiter 96 AQueous ONE Solution Cell Proliferation Assay was obtained from Promega (Madison, WI, USA). All other chemicals and reagents were of analytical grade or higher. (3) Fresh human hepatocytes (Table 58b) seeded at ˜0.15 million cells/well in 48-well plates (˜0.75 million cells/mL) were purchased from Thermo Fisher Scientific (Grand Island, NY, USA) and BioreclamationIVT (Baltimore, MD, USA).
(§2) Vehicle controls were treated in parallel with hepatocyte culture medium. […] (2) After the CYP induction treatment, the cells were used for a cell viability assay. […] The absorbance of formazan, which is proportional to the number of viable cells, was measured spectrophotometrically using the CellTiter 96 AQueous ONE Solution Cell Proliferation Assay. […] (3) Total RNA was isolated from the treated cells using the RNeasy mini kit (Qiagen, Valencia, CA, USA) and treated with RNase-free DNase (Qiagen) following the manufacturer's protocols. The concentration of RNA was determined using a Qubit Fluorometer with a Qubit RNA HS assay kit (Invitrogen). cDNA was synthesized from up to 1 μg of the total RNA harvested from the cells using a QuantiTect RT kit (Qiagen). Analysis of gene expression by qPCR was performed using the LightCycler 480 System (Roche Diagnostics Corporation, Indianapolis, IN, USA).

CYP1A2 mRNA = assay: CYP induction (mRNA) in fresh human hepatocytes
From the text: as §1, §2

TA98 = assay: Ames Bacterial Reverse Mutation Assay
Experimental: The Ames Bacterial Reverse Mutation (AB™) used five bacterial tester strains (TA97a, TA98, TA100, TA1535, WP2-uvrA).
Tester strains were added to flasks containing nutrient broth and incubated at 37+2° C. overnight. The flasks were removed from the overnight incubation and the final concentration was determined (the OD was measured and determined whether growth was suitable for testing). Top agar was melted, and 2.0 mL was dispensed into heated culture tubes. The S9 mix (metabolic activation) was prepared and stored on ice. […] Each culture tube was vortexed and immediately poured onto the labeled minimal glucose agar plates. All plates were inverted and placed into a 37±1° C. incubator for 48-72 hours. The plates were counted via an automated colony counter or by hand and the background lawn was microscopically evaluated for any signs of toxicity. Genotypic control plates were prepared for each tester strain and incubated for 24-72 hours at 37±1° C.

USP2a [1] = target: T1, USP2a (Homo sapiens, UniProt O75604); assay: USP2a deubiquitinase in vitro reconstitution assay; conditions: 50 nM FL118; polyUb MdmX
T1 sequence (O75604 1-605): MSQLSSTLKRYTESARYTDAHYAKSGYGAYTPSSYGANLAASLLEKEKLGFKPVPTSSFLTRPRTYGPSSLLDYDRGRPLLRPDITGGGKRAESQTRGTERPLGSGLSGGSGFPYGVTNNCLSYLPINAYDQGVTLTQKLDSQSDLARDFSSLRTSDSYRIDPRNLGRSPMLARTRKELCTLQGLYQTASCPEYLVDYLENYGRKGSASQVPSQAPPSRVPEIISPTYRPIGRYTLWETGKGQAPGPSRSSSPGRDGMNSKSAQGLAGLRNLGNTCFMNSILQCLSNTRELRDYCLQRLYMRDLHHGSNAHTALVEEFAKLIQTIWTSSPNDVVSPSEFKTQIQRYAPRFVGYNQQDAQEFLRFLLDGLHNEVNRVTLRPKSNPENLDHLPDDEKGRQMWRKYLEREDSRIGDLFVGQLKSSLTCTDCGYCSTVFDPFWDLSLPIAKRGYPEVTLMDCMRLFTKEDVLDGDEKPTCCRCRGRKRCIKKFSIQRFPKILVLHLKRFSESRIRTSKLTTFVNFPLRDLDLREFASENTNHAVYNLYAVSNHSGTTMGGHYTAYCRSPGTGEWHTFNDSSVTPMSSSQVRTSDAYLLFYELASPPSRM
Experimental: Flag-tagged MdmX (0.1 μM) was mixed with 0.1 μM Mdm2 for 60 min at 30° C. in the presence of UbE1, UbE2D3, ubiquitin, and ATP in a buffer. […] Reactions were then immunoblotted with Flag antibody. Signals were detected with enhanced chemiluminescence (ECL). […] Each bar in FIG. 28D is the mean±SD from 3 independent analyses. […] Each bar is the mean±SD from 3 independent analyses; the t-test was used for P-values: * P≤0.5; ** P≤0.01; *** P≤0.001.

USP2a [2] = target: T1, USP2a; assay: 3H-FL118 binding, Nanosep 3K centrifugal device; parameters: host or cells: HEK293T
Experimental: (§3) Then, 5-10 μg of the FLAGR M Purification Kit (Signa)-purified Flag-USP2a and Flag-UbE2T proteins in a volume of 20-50 μL, respectively, was transferred into the sample reservoir of a 1.5 mL Nanosep 3K Centrifugal Device. In parallel, a negative control Nanosep 3K Centrifugal Devices containing 10 μg bovine serum albumin (BSA) in 50 μL volume was also set up. Then, the 3 prepared Nanosep 3K Devices were centrifuged at 10,000 rpm for 10-15 min to eliminate the solution and retain the proteins in the sample reservoir. […] Lastly, all three of the sample reservoir devices were transferred into a scintillation vial containing enough scintillation solution to cover the entire sample reservoir devices for tritium (3H) counting on the LS 6500 Scintillation System (Backman Couler™).

UbE2T = target: T2, UbE2T (Homo sapiens, UniProt Q9NPD8); assay: 3H-FL118 binding, Nanosep 3K centrifugal device; parameters: host or cells: HEK293T; conditions: hot FL118 solution 10 μM
T2 sequence (Q9NPD8 1-197): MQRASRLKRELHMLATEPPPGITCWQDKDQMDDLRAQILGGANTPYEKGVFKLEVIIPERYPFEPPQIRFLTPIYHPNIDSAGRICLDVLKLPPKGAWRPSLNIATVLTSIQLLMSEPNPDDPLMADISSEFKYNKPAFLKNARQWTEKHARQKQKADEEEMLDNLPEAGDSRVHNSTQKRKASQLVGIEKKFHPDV
Experimental: as §3

Q: For `CCC1(O)C(=O)OCc2c1cc1n(c2=O)Cc2cc3cc4c(cc3nc2-1)OCO4` (stereo not drawn) [FL118], which “% of PB-treated Cells” value (CYP2B6 mRNA; Donor 1, 0.01 μM, negative values treated as zero) is on record?
A: Its value is 0%.

Q: And the “% of PB-treated Cells” value (CYP2B6 mRNA; Donor 1, 0.1 μM, negative values treated as zero)?
A: Its value is 0%.

Q: What about the “% of PB-treated Cells” value (CYP2B6 mRNA; Donor 1, 1 μM, negative values treated as zero) of the same molecule?
A: The value was 0%.

Q: What about the “% of PB-treated Cells” value (CYP2B6 mRNA; Donor 3, 0.025 μM, negative values treated as zero) of the same molecule?
A: The value was 0%.

Q: What about the “% of PB-treated Cells” value (CYP2B6 mRNA; Donor 3, 0.05 μM, negative values treated as zero) of the same molecule?
A: Its value is 0%.

Q: And the “induction of CYP2B6 mRNA” value (CYP2B6 mRNA; donor 1, 0.01, 0.1, 1 μM)?
A: The value was “did not increase CYP2B6 mRNA”.

Q: What about the “% of PB-treated Cells” value (CYP2B6 mRNA; donor 2, 0.001 μM) of the same molecule?
A: The value was 0.70%.

Q: And the “% of PB-treated Cells” value (CYP2B6 mRNA; donor 2, 0.005 μM)?
A: The value was 0.43%.

Q: And the “% of PB-treated Cells” value (CYP2B6 mRNA; donor 2, 0.01 μM)?
A: Its value is 0.11%.

Q: What about the “induction of CYP2B6 mRNA” value (CYP2B6 mRNA; donor 2, 0.001, 0.005, 0.01 μM) of the same molecule?
A: The value was “did not increase CYP2B6 mRNA”.

Q: And the “induction of CYP2B6 mRNA” value (CYP2B6 mRNA; donor 3, 0.025, 0.05 μM)?
A: The value was “did not increase CYP2B6 and CYP3A4 mRNA”.

Q: And the “% of OME-treated Cells” value (CYP1A2 mRNA; donor 1, 0.01 μM)?
A: The value was 0.15%.

Q: And the “induction of CYP1A2 mRNA” value (CYP1A2 mRNA; donor 1, 0.01 μM)?
A: Its value is < 2 fold.

Q: What about the “% of OME-treated Cells” value (CYP1A2 mRNA; donor 1, 0.1 μM) of the same molecule?
A: The value was 1.1%.

Q: What about the “induction of CYP1A2 mRNA” value (CYP1A2 mRNA; donor 1, 0.1 μM) of the same molecule?
A: Its value is 2.0 fold.

Q: And the “% of OME-treated Cells” value (CYP1A2 mRNA; donor 1, 1 μM)?
A: The value was 2.6%.

Q: What about the “induction of CYP1A2 mRNA” value (CYP1A2 mRNA; donor 1, 1 μM) of the same molecule?
A: The value was 3.4 fold.

Q: And the “% of OME-treated Cells” value (CYP1A2 mRNA; donor 2, 0.001 μM)?
A: The value was 0.88%.

Q: And the “induction of CYP1A2 mRNA” value (CYP1A2 mRNA; donor 2, 0.001 μM)?
A: The value was 2.3 fold.

Q: What about the “% of OME-treated Cells” value (CYP1A2 mRNA; donor 2, 0.005 μM) of the same molecule?
A: The value was 1.0%.

Q: What about the “induction of CYP1A2 mRNA” value (CYP1A2 mRNA; donor 2, 0.005 μM) of the same molecule?
A: Its value is 2.5 fold.

Q: And the “% of OME-treated Cells” value (CYP1A2 mRNA; donor 2, 0.01 μM)?
A: Its value is 2.6%.

Q: And the “induction of CYP1A2 mRNA” value (CYP1A2 mRNA; donor 2, 0.01 μM)?
A: Its value is 4.9 fold.

Q: What about the “% of OME-treated Cells” value (CYP1A2 mRNA; donor 3, 0.025 μM) of the same molecule?
A: The value was 1.6%.

Q: What about the “induction of CYP1A2 mRNA” value (CYP1A2 mRNA; donor 3, 0.025 μM) of the same molecule?
A: Its value is 2.0 fold.

Q: What about the “% of OME-treated Cells” value (CYP1A2 mRNA; donor 3, 0.05 μM) of the same molecule?
A: Its value is 1.6%.

Q: And the “induction of CYP1A2 mRNA” value (CYP1A2 mRNA; donor 3, 0.05 μM)?
A: The value was 2.1 fold.

Q: And the bacterial strain mutation (TA98)?
A: Its bacterial strain mutation is “does not induce”.

Q: What about the “mean revertant colonies over negative control” value (TA98; +/− S9) of the same molecule?
A: The value was “less than 2 fold”.

Q: What about the “Background Lawn Code” value (TA98; TA98, 0.010 μM +S9) of the same molecule?
A: The value was 1.

Q: And the “Colony Counts Average” value (TA98; TA98, 0.010 μM +S9)?
A: The value was 38.

Q: And the “Colony Counts Replicate 1-3” value (TA98; TA98, 0.010 μM +S9)?
A: The value was 32 and 37 and 45.

Q: What about the “Background Lawn Code” value (TA98; TA98, 0.010 μM −S9) of the same molecule?
A: The value was 1.

Q: And the “Colony Counts Average” value (TA98; TA98, 0.010 μM −S9)?
A: The value was 38.

Q: What about the “Colony Counts Replicate 1-3” value (TA98; TA98, 0.010 μM −S9) of the same molecule?
A: Its value is 29 and 53 and 32.

Q: What about the “Background Lawn Code” value (TA98; TA98, 0.10 μM +S9) of the same molecule?
A: The value was 1.

Q: What about the “Colony Counts Average” value (TA98; TA98, 0.10 μM +S9) of the same molecule?
A: The value was 44.

Q: And the “Colony Counts Replicate 1-3” value (TA98; TA98, 0.10 μM +S9)?
A: Its value is 45 and 41 and 46.

Q: And the “Background Lawn Code” value (TA98; TA98, 0.10 μM −S9)?
A: Its value is 1.

Q: What about the “Colony Counts Average” value (TA98; TA98, 0.10 μM −S9) of the same molecule?
A: Its value is 24.

Q: What about the “Colony Counts Replicate 1-3” value (TA98; TA98, 0.10 μM −S9) of the same molecule?
A: The value was 36 and 20 and 15.

Q: What about the “Background Lawn Code” value (TA98; TA98, 1.0 μM +S9) of the same molecule?
A: The value was 1.

Q: What about the “Colony Counts Average” value (TA98; TA98, 1.0 μM +S9) of the same molecule?
A: The value was 44.

Q: What about the “Colony Counts Replicate 1-3” value (TA98; TA98, 1.0 μM +S9) of the same molecule?
A: The value was 35 and 45 and 52.

Q: What about the “Background Lawn Code” value (TA98; TA98, 1.0 μM −S9) of the same molecule?
A: Its value is 1.

Q: And the “Colony Counts Average” value (TA98; TA98, 1.0 μM −S9)?
A: The value was 23.

Q: What about the “Colony Counts Replicate 1-3” value (TA98; TA98, 1.0 μM −S9) of the same molecule?
A: The value was 24 and 26 and 19.

Q: What about the USP2a deubiquitinase activity (USP2a [1]) of the same molecule?
A: The USP2a deubiquitinase activity was “inhibited USP2a deubiquitinase activity”.

Q: What about the “binding of 3H-FL118 to USP2a and UbE2T versus BSA” value (USP2a [2]; 3H counts per min) of the same molecule?
A: Its value is 10-20 fold.

Q: What about the “3H CPM counts in retained parts” value (USP2a [2]; hot FL118 solution 10 μM) of the same molecule?
A: Its value is 97,436 ± 2960 CPM.

Q: And the “3H CPM counts in retained parts” value (UbE2T)?
A: The value was 52,382 ± 1930 CPM.
